Measurements from patent publication US11292781B2, “Pyrimidine tricyclic enone derivatives for inhibition of ROR-gamma and other uses” (REATA PHARMACEUTICALS, INC., priority 2016, dated 2022).

Key:
[1] = tested on: Nrf2 transcription factor (GST ARE luciferase reporter in AREc32 cells); experiment: AREc32 luciferase reporter assay; assay type: cell-based, human; conditions: EC2×: concentration required to increase GST ARE luciferase reporter activity by 2-fold, 19 hours
How it was run: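 AREc32 cells (MCF-7 carrying luciferase under eight rat GSTA2 ARE copies) treated with compound; luciferase measured by ONE-Glo luminescence. Signal normalised to DMSO wells as fold-induction, fitted by variable-slope log(agonist)-response regression, with EC2× interpolated from the curve.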

[2] = tested on: Human RAR-related Orphan Receptor Gamma (RORγ); experiment: RORγ assay (GAL4-RORγ hybrid luciferase reporter, Indigo Biosciences); assay type: cell-based; conditions: GAL4-RORγ reporter cells, 23 hours
Text: B. RORγ Assay and Cell Viability
The RORγ assay system was purchased from Indigo Biosciences. This nuclear receptor assay utilizes a human cell line that has been engineered to express a hybrid form of the Human RAR-related Orphan Receptor Gamma (RORγ) at high levels. The N-terminal DNA binding domain (DBD) of the native RORγ receptor was substituted with the yeast GAL4-DBD to generate the GAL4-RORγ hybrid nuclear receptor. The reporter cell line is transfected with a plasmid that encodes the beetle luciferase gene under the control of the GAL4 upstream activating sequence (UAS). GAL4 binds to the UAS and increases transcription of downstream target genes. […] To assess the RORγ inverse-agonist activity of the test compounds, reporter cells were plated in white 96-well plates in triplicate and were treated with DMSO (vehicle) or test compound (concentration ranges of 0.4-200 nM or 2-1000 nM) at 37° C. with 5% CO2 in a humidified atmosphere for 23 hours. After this incubation, luciferin was added to the wells and luciferase activity was determined by measuring the luminescence signal using a BMG Pherastar microplate reader. Viability was determined using the Live Cell Multiplex Assay (Indigo Biosciences). Values from test compound samples were normalized to those from DMSO-treated samples. Data were analyzed using GraphPad Prism version 6.00 for Windows (GraphPad Software, La Jolla Calif. USA). A non-linear regression analysis with log (inhibitor) vs. normalized response using a variable slope was applied to fit the data and determine the IC50 values for inhibition of RORγ and cell viability.

[3] = tested on: IL-17A levels in primary human CD4+ T cells differentiated into Th17 cells; experiment: IL-17 release from differentiated primary human T-cells (IL-17A HTRF); assay type: cell-based; conditions: primary human CD4+ T cells, Th17 differentiation, 46-hour incubation; read-out: hIL17 IC50
Method: C. IL-17 Release from Differentiated Primary Human T-Cells and Cell Viability Primary human cryopreserved CD4+ T Cells (Lonza, donor #0000402103) were plated in Lymphocyte Growth Medium-3 (LGM-3, Lonza) according to the manufacturer's recommendations, and allowed to recover for approximately 3 hours at 37° C. with 5% CO2 in a humidified atmosphere. […] Triplicate wells were plated for each test condition. DMSO (final concentration ≤0.1%) was used as the vehicle. Immediately after plating, CD4+ T cells were activated by adding Dynabeads Human T-Activator CD3/CD28 (Life Technologies; bead-to-cell ratio of 1:2.5) and differentiated into Th17 cells by adding a mixture of the following cytokines: transforming growth factor-β (TGF-β, 5 ng/mL), IL-6 (20 ng/mL), IL-23 (20 ng/mL), and […] (10 ng/mL). Undifferentiated control cells received only cytokine IL-2 (50 ng/mL). All human recombinant cytokines were purchased from R&D Systems. Following a 46-hour incubation at 37° C. with 5% CO2 in a humidified atmosphere, the plates were centrifuged for 3 minutes at 250×g, and half of the supernatant was transferred to a new plate to be used in the IL-17A assay (see below). Cell viability was assessed in the original plate using the CyQuant Direct Assay (Life Technologies). CyQuant values from test compound samples were normalized to those from DMSO-treated samples. The concentration of IL-17A in the supernatant was measured using the Homogeneous Time-Resolved Fluorescence (HTRF) assay (Cisbio Bioassays) according to the manufacturer's protocol. The assay was performed at room temperature in low volume, solid white 384-well plates (Greiner Bio-One). […] A non-linear regression analysis with log (inhibitor) vs. normalized response using a variable slope was applied to fit the data and determine the IC50 values for inhibition of IL-17A levels and cell viability.

SMILES	HRF2 ARE 2× [1] [nM]	IC50 [2] [nM]	IC50 [3] [nM]
COc1nc(CCNC=O)nc2c1CC[C@@H]1[C@@H](C)C(=O)C(C#N)=C[C@@]21C [T11]	2438	> 2000	–
C[C@H]1C(=O)C(C#N)=C[C@@]2(C)c3nc(-c4ccncc4)nc(O)c3CC[C@H]12 [T17]	839	> 2000	–
C[C@H]1C(=O)C(C#N)=C[C@@]2(C)c3nc(-c4ccnc5ccccc45)nc(NS(C)(=O)=O)c3CC[C@H]12 [T98]	>2000	> 2000	> 1000
C[C@H]1C(=O)C(C#N)=C[C@@]2(C)c3nc(-c4ccc(-c5ccccc5)nc4)nc(-c4ccccc4F)c3CC[C@H]12 [T141]	557	–	22
C[C@H]1C(=O)C(C#N)=C[C@@]2(C)c3nc(-c4ccc(CCS(C)(=O)=O)nc4)nc(-c4ccccc4F)c3CC[C@H]12 [T142]	217	–	77
C[C@H]1C(=O)C(C#N)=C[C@@]2(C)c3nc(-c4ccnc(CS(C)(=O)=O)c4)nc(-c4ccccc4F)c3CC[C@H]12 [T143]	538	–	94
C[C@H]1C(=O)C(C#N)=C[C@@]2(C)c3nc(-c4ccnc(CCS(C)(=O)=O)c4)nc(-c4ccccc4F)c3CC[C@H]12 [T144]	299	–	72
C[C@H]1C(=O)C(C#N)=C[C@@]2(c3ccccc3)c3nc(-c4ccnc5ccccc45)nc(-c4ccccc4F)c3CC[C@H]12 [T148]	1758	–	77
CC1(C)C(=O)C(C#N)=C[C@@]2(C)c3nc(-c4cccc5ncccc45)nc(-c4ccccc4F)c3CC[C@H]12 [T149]	330	–	14
C[C@H]1C(=O)C(C#N)=C[C@@]2(C)c3nc(-c4ccnc(CCC(=O)O)c4)nc(-c4ccccc4F)c3CC[C@H]12 [T150]	>2000	> 2000	–
CCOC(=O)CCc1cc(-c2nc(-c3ccccc3F)c3c(n2)[C@]2(C)C=C(C#N)C(=O)[C@H](C)[C@H]2CC3)ccn1 [T151]	1111	–	54
C[C@H]1C(=O)C(C#N)=C[C@@]2(C)c3nc(-c4ccnc(CCC(=O)N(C)C)c4)nc(-c4ccccc4F)c3CC[C@H]12 [T152]	323	–	46
CCS(=O)(=O)CCc1cc(-c2nc(-c3ccccc3F)c3c(n2)[C@]2(C)C=C(C#N)C(=O)[C@H](C)[C@H]2CC3)ccn1 [T153]	282	–	52
CCS(=O)(=O)Cc1cc(-c2nc(-c3ccccc3F)c3c(n2)[C@]2(C)C=C(C#N)C(=O)[C@H](C)[C@H]2CC3)ccn1 [T154]	469	–	65
CCC[C@@]12C=C(C#N)C(=O)C[C@H]1CCc1c(-c3ccccc3F)nc(-c3ccnc(CF)c3)nc12 [T155]	267	–	71
CCC[C@@]12C=C(C#N)C(=O)C[C@H]1CCc1c(-c3ccccc3F)nc(-c3ccnc4ccccc34)nc12 [T156]	333	–	54
C[C@]1(CC2CC2)C(=O)C(C#N)=C[C@@]2(C)c3nc(-c4ccnc5ccccc45)nc(-c4ccccc4F)c3CC[C@H]12 [T157]	304	–	23

SMILES	HRF2 ARE 2× [1] [nM]	IC50 [2] [nM]	IC50 [3] [nM]
CCC[C@H]1C(=O)C(C#N)=C[C@@]2(C)c3nc(-c4cccc5ncccc45)nc(-c4ccccc4F)c3CC[C@H]12 [T159]	337	–	22
CC(C)c1cccc(-c2nc(-c3ccnc4ccccc34)nc3c2CC[C@@H]2[C@@H](C)C(=O)C(C#N)=C[C@@]32C)c1 [T160]	418	–	22
C[C@H]1C(=O)C(C#N)=C[C@@]2(C)c3nc(-c4ccnc5ccccc45)nc(-c4cccc(-c5ccccc5)c4)c3CC[C@H]12 [T162]	601	–	50
CC(C)CC[C@@]12C=C(C#N)C(=O)C[C@H]1CCc1c(-c3ccccc3F)nc(-c3ccnc4ccccc34)nc12 [T164]	1059	–	352
CC(C)CC[C@@]12C=C(C#N)C(=O)C[C@H]1CCc1c(-c3ccccc3F)nc(-c3ccnc(CF)c3)nc12 [T165]	863	–	65
C=C(C)C[C@@]1(C)C(=O)C(C#N)=C[C@@]2(C)c3nc(-c4ccnc5ccccc45)nc(-c4ccccc4F)c3CC[C@H]12 [T166]	878	–	31
CCC[C@@]12C=C(C#N)C(=O)C[C@H]1CCc1c(-c3ccccc3F)nc(-c3ccnc(C4CC4)c3)nc12 [T167]	493	–	106
CCC[C@H]1C(=O)C(C#N)=C[C@@]2(CCC)c3nc(-c4ccnc(C5CC5)c4)nc(-c4ccccc4F)c3CC[C@H]12 [T168]	1239	–	32
C[C@@H]1C(=O)C(C#N)=C[C@@]2(C)c3nc(-c4ccnc5ccccc45)nc(-c4ccccc4F)c3CC[C@@H]12 [T175]	>2000	–	329
C[C@H]1C(=O)C(C#N)=C[C@@]2(C)c3nc(-c4ccnc5ccccc45)nc(-c4ccccc4F)c3CC[C@@H]12 [T176]	>2000	–	455
CC(=O)NCCc1cc(-c2nc(-c3ccccc3F)c3c(n2)[C@]2(C)C=C(C#N)C(=O)[C@H](C)[C@H]2CC3)ccn1 [T178]	444	–	130
C[C@H]1C(=O)C(C#N)=C[C@@]2(C)c3nc(-c4ccncc4-c4ccccc4)nc(-c4ccccc4F)c3CC[C@H]12 [T179]	649	–	27
C[C@H]1C(=O)C(C#N)=C[C@@]2(C)c3nc(-c4ccncc4C4CC4)nc(-c4ccccc4F)c3CC[C@H]12 [T180]	494	–	21
C[C@H]1C(=O)C(C#N)=C[C@@]2(C)c3nc(-c4cccc5ncccc45)nc(-c4ccccc4)c3CCC[C@H]12 [T183]	1868	–	70
Cc1cc(-c2nc(-c3ccc(F)cc3)c3c(n2)[C@]2(C)CC(C(N)=O)C(=O)[C@H](C)[C@H]2CC3)ccn1 (stereo partly shown) [T185]	>2000	> 2000	–
C[C@H]1C(=O)C(C#N)C[C@@]2(C)c3nc(-c4ccnc5ccccc45)nc(-c4ccccc4F)c3CC[C@H]12 (stereo partly shown) [T186]	>2000	–	195
